Values quoted from earlier work in patent US20120190734A1, “COMPOUNDS AND COMPOSITIONS FOR TREATING INFECTION” (priority 2011, published 2012).

Assays:
[1] = tested on: influenza virus
[2] = tested on: HIV-1
[3] = tested on: herpes simplex virus (HSV-2)
[4] = biological target: HIV-1 reverse transcriptase (Human immunodeficiency virus type 1 group M subtype B, UniProt P04585)

Molecule | anti-herpes simplex virus (HSV-2) activity in vitro [3] | effect on HIV-1 reverse transcriptase activity [4] | further results
O=c1cc(-c2ccc(O)cc2)oc2cc(O)cc(O)c12 [5,7,4-truhydroxyflavone] | – | – | anti-influenza virus activity [1]: anti-influenza virus activity
Prunellin | – | – | minimum inhibition concentration against HIV-1 in vitro [2]: 2.2 µg/mL
COC(=O)c1cc(O)c(O)c(O)c1 [methyl gallate] | exhibited anti-herpes simplex virus (HSV-2) activity | – | –
COCc1cc2cc(OC)c(OC)cc2c(-c2ccc3c(c2)OCO3)c1C=O [phyllamycin B] | – | inhibitory effect | –
COc1cc2cc3c(c(-c4ccc5c(c4)OCO5)c2cc1OC)COC3=O [retrojusticiden B] | – | inhibitory effect | –
O=C(O[C@@H]1O[C@@H]2COC(=O)c3cc(O)c(O)c(O)c3-c3c(cc(O)c(O)c3O)C(=O)O[C@H]2[C@H](OC(=O)c2cc(O)c(O)c(O)c2)[C@H]1OC(=O)c1cc(O)c(O)c(O)c1)c1cc(O)c(O)c(O)c1 [Eugeniin] | exhibited anti-herpes simplex virus (HSV-2) activity | – | –
